Assay results reported in ChEMBL document CHEMBL2375344, “Identification of pyrrolo[2,3-g]indazoles as new Pim kinase inhibitors” (Bioorg Med Chem Lett, 2013).

How the values were obtained:
[1] = target: T1, Serine/threonine-protein kinase pim-3 (Homo sapiens, UniProt Q86V86); assay: Inhibition of human full length Pim-3 using RSRHSSYPAGT as substrate assessed as residual activity at 1 uM after 30 mins in presence of [gamma-33P]ATP; values are per cent of control
[2] = target: Serine/threonine-protein kinase pim-2 (Homo sapiens) (UniProt Q9P1W9); assay: Inhibition of human full length Pim-2 using RSRHSSYPAGT as substrate assessed as residual activity at 1 uM after 30 mins in presence of [gamma-33P]ATP; values are per cent of control
[3] = target: T2, Serine/threonine-protein kinase pim-1 (Homo sapiens, UniProt P11309); assay: Inhibition of human full length Pim-1 using RSRHSSYPAGT as substrate assessed as residual activity at 1 uM after 30 mins in presence of [gamma-33P]ATP; values are per cent of control
Target sequence in this assay (P11309 whole entry, looked up): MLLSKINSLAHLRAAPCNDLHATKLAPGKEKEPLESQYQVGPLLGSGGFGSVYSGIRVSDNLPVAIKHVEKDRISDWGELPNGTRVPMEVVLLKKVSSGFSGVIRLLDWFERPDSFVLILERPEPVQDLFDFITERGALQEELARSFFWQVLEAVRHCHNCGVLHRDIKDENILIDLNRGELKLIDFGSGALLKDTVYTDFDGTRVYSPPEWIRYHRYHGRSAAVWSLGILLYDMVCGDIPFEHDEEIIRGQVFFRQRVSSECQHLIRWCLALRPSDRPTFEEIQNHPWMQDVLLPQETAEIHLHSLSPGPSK

[4] = target: T1, Serine/threonine-protein kinase pim-3; assay: Inhibition of human full length Pim-3 using RSRHSSYPAGT as substrate assessed as residual activity at 10 uM after 30 mins in presence of [gamma-33P]ATP; values are per cent of control
[5] = target: Serine/threonine-protein kinase pim-2 (Homo sapiens) (UniProt Q9P1W9); assay: Inhibition of human full length Pim-2 using RSRHSSYPAGT as substrate assessed as residual activity at 10 uM after 30 mins in presence of [gamma-33P]ATP; values are per cent of control
[6] = target: T2, Serine/threonine-protein kinase pim-1; assay: Inhibition of human full length Pim-1 using RSRHSSYPAGT as substrate assessed as residual activity at 10 uM after 30 mins in presence of [gamma-33P]ATP; values are per cent of control
Target sequence in this assay (P11309 whole entry, looked up): as the sequence (P11309 whole entry, looked up) above

[7] = target: T1, Serine/threonine-protein kinase pim-3; assay: Inhibition of human full length Pim-3 using RSRHSSYPAGT as substrate assessed as residual activity after 30 mins in presence of [gamma-33P]ATP
[8] = target: T2, Serine/threonine-protein kinase pim-1; assay: Inhibition of human full length Pim-1 using RSRHSSYPAGT as substrate assessed as residual activity after 30 mins in presence of [gamma-33P]ATP
Target sequence in this assay (P11309 whole entry): as the sequence (P11309 whole entry, looked up) above

Sequence of Serine/threonine-protein kinase pim-2 (Homo sapiens) (Q9P1W9 whole entry, looked up): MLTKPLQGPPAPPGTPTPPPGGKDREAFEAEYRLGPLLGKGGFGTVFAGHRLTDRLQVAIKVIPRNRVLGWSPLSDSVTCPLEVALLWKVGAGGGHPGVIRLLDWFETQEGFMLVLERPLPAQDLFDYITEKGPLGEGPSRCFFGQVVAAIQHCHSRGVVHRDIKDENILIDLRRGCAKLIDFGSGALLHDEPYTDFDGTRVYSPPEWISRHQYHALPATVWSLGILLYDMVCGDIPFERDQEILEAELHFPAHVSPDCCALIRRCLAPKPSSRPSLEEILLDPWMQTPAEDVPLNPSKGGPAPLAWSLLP

Row | SMILES | residual activity [1] [%] | residual activity [2] [%] | residual activity [3] [%] | residual activity [4] [%] | residual activity [5] [%] | residual activity [6] [%] | IC50 [7] [µM] | IC50 [8] [µM]
1 | CCOC(=O)c1[nH]c2c([N+](=O)[O-])cc3cn[nH]c3c2c1C | 72 | 105 | 78 | 47 | 97 | 72 |  | 
2 | CCCc1c[nH]c2c(N)cc3cn[nH]c3c12 | 79 | 90 | 104 | 39 | 93 | 57 |  | 
3 | CCOC(=O)c1[nH]c2c(N)cc3cn[nH]c3c2c1C | 93 | 102 | 93 | 26 | 97 | 61 |  | 
4 | Cc1c[nH]c2c([N+](=O)[O-])cc3cn[nH]c3c12 | 77 | 99 | 68 | 26 | 61 | 26 |  | 
5 | Cc1c[nH]c2c(N)cc3cn[nH]c3c12 | 65 | 105 | 91 | 17 | 88 | 63 |  | 
6 | O=Cc1c[nH]c2c([N+](=O)[O-])cc3cn[nH]c3c12 | 76 | 117 | 97 | 25 | 70 | 27 |  | 
7 | C[Si](C)(C)c1cc2c([nH]1)c([N+](=O)[O-])cc1cn[nH]c12 | 51 | 103 | 63 | 9 | 64 | 17 | 0.47 | 
8 | CCOCc1c[nH]c2c([N+](=O)[O-])cc3cn[nH]c3c12 | 71 | 109 | 82 | 19 | 63 | 26 |  | 
9 | O=[N+]([O-])c1cc2cn[nH]c2c2cc[nH]c12 | 78 | 92 | 102 | 18 | 80 | 30 |  | 
10 | CCCc1c(C(=O)OC)[nH]c2c(N)cc3cn[nH]c3c12 | 82 | 105 | 71 | 12 | 78 | 26 |  | 
11 | Nc1cc2cn[nH]c2c2cc[nH]c12 | 20 | 99 | 63 | 4 | 104 | 17 | 0.033 | 0.46
12 | C[Si](C)(C)c1cc2c([nH]1)c(N)cc1cn[nH]c12 | 67 | 93 | 94 | 24 | 111 | 52 |  | 
13 | CCCc1c[nH]c2c([N+](=O)[O-])cc3cn[nH]c3c12 | 24 | 66 | 78 | 6 | 27 | 54 | 0.26 | 
14 | CCCc1c(C(=O)OC)[nH]c2c([N+](=O)[O-])cc3cn[nH]c3c12 | 50 | 113 | 110 | 24 | 85 | 39 | 0.546 | 

Results, then the molecule that gave them:

Row | residual activity [1] [%] | residual activity [2] [%] | residual activity [3] [%] | residual activity [4] [%] | residual activity [5] [%] | residual activity [6] [%] | IC50 [7] [µM] | IC50 [8] [µM] | SMILES
15 | 72 | 91 | 92 | 23 | 75 | 44 |  |  | CCc1[nH]c2c(N)cc3cn[nH]c3c2c1-c1ccccc1
16 | 31 | 77 | 43 | 36 | 84 | 51 | 0.119 | 0.23 | CCc1[nH]c2c([N+](=O)[O-])cc3cn[nH]c3c2c1-c1ccccc1
17 | 68 | 103 | 111 | 26 | 92 | 51 |  |  | Nc1cc2cn[nH]c2c2c(-c3ccccc3)c[nH]c12
18 | 38 | 82 | 52 | 21 | 70 | 28 | 0.53 | 1 | O=[N+]([O-])c1cc2cn[nH]c2c2c(-c3ccccc3)c[nH]c12
19 | 72 | 101 | 74 | 20 | 74 | 29 |  |  | CCOC(=O)c1[nH]c2c(N)cc3cn[nH]c3c2c1-c1ccccc1
20 | 73 | 92 | 86 | 90 | 113 | 55 |  |  | CCOC(=O)c1[nH]c2c([N+](=O)[O-])cc3cn[nH]c3c2c1-c1ccccc1
